As usually defined, the IC50 is the point on the concentration scale where inhibition reaches its midpoint.

IC50 data for 39 compounds are collected here from patent US7625948B2, “Ester compound and medicinal use thereof” (Japan Tobacco Inc., priority 2002, dated 2009).

For one assay, the system named is HepG2 cells. Nature of the assay: Test Example 2: inhibition of apolipoprotein B secretion from HepG2 cells, ELISA (also used for metabolites in Test Example 8). Type of assay: cell-based. To be noted: Homo sapiens, 24 hours, apo B in supernatant by ELISA, read-out: Test Example 2 Inhibition of apo B secretion IC50. How it is done:
Inhibition of Apolipoprotein B Secretion from HepG2 Cells
HepG2 cells were suspended in Dulbecco's Modified Eagle's Medium (DMEM) (containing 10% fetal bovine serum, 100 units/mL penicillin and 100 μg/mL streptomycin), and placed on a 96-well plate (4×10^4 cells/well), then incubated for 24 hours. After removal of the medium, DMEM was replaced by a medium containing a sample dissolved in DMSO or a medium containing DMSO (concentration of DMSO: 0.5%) and incubation was further performed for 24 hours, after which the supernatant was recovered, and concentration of apo B in the supernatant was assayed by Enzyme-Linked Immunosorbent Assay (ELISA)
ELISA was carried out as follows. Anti-human apo B monoclonal antibody (0.5 μg/well) diluted with a solution of sodium carbonate in sodium bicarbonate buffer (50 mL, pH 9.6) was placed in a 96-well plate for ELISA, and allowed to stand at room temperature for 15 hours. After washing the plate, a blocking solution (250 μL/well) was placed in the well, and allowed to stand at room temperature for 1.5 hours. After washing the plate, a standard and a sample (100 μL/well) were placed in the well and allowed to stand at room temperature for one hour. The standard was prepared by adjusting the concentration of the purified human apo B with the DMEM to 0 to 1000 ng/mL. After washing the plate, an anti-human apo B polyclonal antibody labeled with a horse radish peroxidase which was diluted in 1:1000 with DEME (100 μL/well), and allowed to stand at room temperature for one hour. After washing the plate, 2,2-azinobis(3-ethylbenzothiazoline-6-sulfonic acid) solution (100 μL/well) was placed in the well, and allowed to stand at room temperature for one hour. The reaction was stopped by addition of 2% oxalic acid (100 μL/well), and absorbency at 405 nm was measured. Concentration of apo B in the sample was calculated on the basis of a standard curve of the standard. Inhibition rate (%) was calculated from the assayed values in accordance with the following equation.
Inhibition rate (%)=100×(1 minus (concentration of apo B in sample group/concentration of apo B in DMSO group).
Based on the above equation, 50% inhibition concentration (IC50) was determined.
Inhibitory Activity on MTP and apo B Secretion Inhibition by Metabolites
In a similar manner to Test Examples 1 and 2, the activity of metabolites was assayed.
As for `COCCNC(=O)C(COC(=O)Cc1ccc(NC(=O)c2ccccc2-c2ccc(C(F)(F)F)cc2)cc1)(C(=O)NCCOC)c1ccccc1` [Example 1-73], the IC50 came to 39 nM.

Regarding `CCOC(=O)C(COC(=O)Cc1ccc(NC(=O)c2sc(C)nc2-c2ccc(C(F)(F)F)cc2)cc1)(C(=O)OCC)c1ccccc1` [Example 1-74], the IC50 was 680 nM.

With `CCNC(=O)C(COC(=O)Cc1ccc(NC(=O)c2sc(C)nc2-c2ccc(C(F)(F)F)cc2)cc1)(C(=O)NCC)c1ccccc1` [Example 1-75], the half-inhibitory concentration (IC50) is 97 nM.

Consider `CCNC(=O)C(COC(=O)Cc1ccc(NC(=O)c2cccnc2-c2ccc(C(F)(F)F)cc2)cc1)(C(=O)NCC)c1ccccc1` [Example 1-76], for which the IC50 was found to be 120 nM.

Turning to `CCNC(=O)C(COC(=O)Cc1ccc(NC(=O)c2cccnc2-c2ccc(C(F)(F)F)cc2)c(C)c1)(C(=O)NCC)c1ccccc1` [Example 1-77], the IC50 was determined as 360 nM.

For the compound `CCOC(=O)C(COC(=O)Cc1ccc(NC(=O)c2ccccc2-c2ccc(C(F)(F)F)cc2)c(CC)c1)(C(=O)OCC)c1ccccc1` [Example 1-78], the IC50 came out at 11 nM.

As to `CCNC(=O)C(COC(=O)Cc1ccc(NC(=O)c2ccccc2-c2ccc(C(F)(F)F)cc2)c(C(C)C)c1)(C(=O)NCC)c1ccccc1` [Example 1-79], the IC50 was 0.59 nM.

`CCOC(=O)C(COC(=O)Cc1ccc(NC(=O)c2ccccc2-c2ccc(C(F)(F)F)cc2)c(C(C)C)c1)(C(=O)OCC)c1ccccc1` [Example 1-80]: the IC50 is 8.2 nM.

In the case of `CCNC(=O)C(CCOC(=O)Cc1ccc(NC(=O)c2ccccc2-c2ccc(C(F)(F)F)cc2)c(CC)c1)(C(=O)NCC)c1ccccc1` [Example 1-81], the IC50 amounted to 0.49 nM.

With `CCNC(=O)C(COC(=O)Cc1ccc(NC(=O)c2ccccc2-c2ccc(C(F)(F)F)cc2)c(CC(C)C)c1)(C(=O)NCC)c1ccccc1` [Example 1-82], the 50% inhibitory concentration (IC50) came out at 0.53 nM.

Take `CCOC(=O)C(COC(=O)Cc1ccc(NC(=O)c2ccccc2-c2ccc(C(F)(F)F)cc2)c(CC(C)C)c1)(C(=O)OCC)c1ccccc1` [Example 1-83]: the concentration for half-maximal inhibition (IC50) worked out at 0.23 nM.

As for `CCOC(=O)C(COC(=O)Cc1ccc(NC(=O)c2ccccc2-c2ccc(C(F)(F)F)cc2)c(Cl)c1)(C(=O)OCC)c1ccccc1` [Example 1-84], the IC50 turned out to be 4.4 nM.

Turning to `CCOC(=O)C(COC(=O)Cc1ccc(NC(=O)c2ccccc2-c2ccc(C(F)(F)F)cc2)c(Br)c1)(C(=O)OCC)c1ccccc1` [Example 1-85], the IC50 worked out at 3.2 nM.

Consider `CCOC(=O)C(COC(=O)Cc1ccc(NC(=O)c2ccccc2-c2ccc(C(F)(F)F)cc2)c(C(=O)N(CC)CC)c1)(C(=O)OCC)c1ccccc1` [Example 2-10], for which the half-inhibitory concentration (IC50) was 1.4 nM.

Consider `CCNC(=O)C(COC(=O)Cc1ccc(NC(=O)c2ccccc2-c2ccc(C(F)(F)F)cc2)c(C(=O)N(C)C(C)C)c1)(C(=O)NCC)c1ccccc1` [Example 2-12], for which the concentration for half-maximal inhibition (IC50) worked out at 7 nM.

For `CCNC(=O)C(COC(=O)Cc1ccc(NC(=O)c2ccccc2-c2ccc(C(F)(F)F)cc2)c(C(=O)N2CCCCC2)c1)(C(=O)NCC)c1ccccc1` [Example 2-16], the half-maximal inhibitory concentration (IC50) is 2.7 nM.

On to `CCCN(C)C(=O)c1cc(CC(=O)OCC(C(=O)NCC)(C(=O)NCC)c2ccccc2)ccc1NC(=O)c1ccccc1-c1ccc(C(F)(F)F)cc1` [Example 2-19], for which the IC50 worked out at 26 nM.

Regarding `CCCN(C)C(=O)c1cc(CC(=O)OCCC(C(=O)NCC)(C(=O)NCC)c2ccccc2)ccc1NC(=O)c1ccccc1-c1ccc(C(F)(F)F)cc1` [Example 2-20], the IC50 came to 0.64 nM.

Turning to `CCC(=O)N[C@@H](COC(=O)Cc1ccc(NC(=O)c2ccccc2-c2ccc(C(F)(F)F)cc2)c(C(=O)N(C)C)c1)c1ccccc1` [Example 2-24], the IC50 worked out at 28 nM.

With `CN(C)C(=O)c1cc(CC(=O)OC[C@H](c2ccccc2)N2C(=O)CCC2=O)ccc1NC(=O)c1ccccc1-c1ccc(C(F)(F)F)cc1` [Example 2-26], the IC50 was found to be 8.2 nM.

On to `CC(C)N[C@@H](COC(=O)Cc1ccc(NC(=O)c2ccccc2-c2ccc(C(F)(F)F)cc2)c(C(=O)N(C)C)c1)c1ccccc1` [Example 2-29], for which the IC50 came to 91 nM.

For the compound `CCNC(=O)C(COC(=O)Cc1ccc(NC(=O)c2ccccc2C(F)(F)F)c(C(=O)N(C)C)c1)(C(=O)NCC)c1ccccc1` [Example 2-30], the 50% inhibitory concentration (IC50) was determined as 27 nM.

As to `CCOC(=O)C(COC(=O)Cc1ccc(NC(=O)c2ccccc2C(F)(F)F)c(C(=O)N(C)C)c1)(C(=O)OCC)c1ccccc1` [Example 2-31], the IC50 came out at 43 nM.

Take `CCOC(=O)C(CCOC(=O)Cc1ccc(NC(=O)c2ccccc2-c2ccc(C(F)(F)F)cc2)c(C(=O)N(C)C)c1)(C(=O)OCC)c1ccccc1` [Example 2-32]: the IC50 is 1.7 nM.

In the case of `CCOC(=O)C(COC(=O)Cc1ccc(NC(=O)c2ccccc2-c2ccc(F)cc2)c(C(=O)N(C)C)c1)(C(=O)OCC)c1ccccc1` [Example 2-33], the IC50 was 13 nM.

In the case of `CCOC(=O)C(COC(=O)Cc1ccc(NC(=O)c2ccccc2-c2ccc(Br)cc2)c(C(=O)N(C)C)c1)(C(=O)OCC)c1ccccc1` [Example 2-34], the IC50 turned out to be 2 nM.

For the compound `CC(=O)N[C@H](COC(=O)Cc1ccc(NC(=O)c2ccccc2-c2ccc(C(F)(F)F)cc2)c(C(=O)N(C)C)c1)c1ccccc1` [Example 2-35], the IC50 was 38 nM.

Take `CCCC(=O)N[C@H](COC(=O)Cc1ccc(NC(=O)c2ccccc2-c2ccc(C(F)(F)F)cc2)c(C(=O)N(C)C)c1)c1ccccc1` [Example 2-36]: the IC50 stood at 7.4 nM.

For `CCOC(=O)C(COC(=O)Cc1ccc(NC(=O)c2ccccc2-c2ccc(C(F)(F)F)cc2)c(C(=O)N(C)C)c1)(C(=O)OCC)C1CCCC1` [Example 2-40], the IC50 was determined as 0.99 nM.

For the compound `CCOC(=O)C(COC(=O)Cc1ccc(NC(=O)c2ccccc2-c2ccc(C(F)(F)F)cc2)c(C(=O)N(C)C)c1)(C(=O)OCC)C1CCCCC1` [Example 2-41], the IC50 came to 1.2 nM.

For the compound `CCOC(=O)C(COC(=O)Cc1ccc(NC(=O)c2ccccc2-c2ccc(Cl)cc2)c(C(=O)N(C)C)c1)(C(=O)OCC)c1ccccc1` [Example 2-42], the IC50 was determined as 1.8 nM.

In the case of `CCOC(=O)C(COC(=O)Cc1ccc(NC(=O)c2ccccc2-c2ccc(C(C)=O)cc2)c(C(=O)N(C)C)c1)(C(=O)OCC)c1ccccc1` [Example 2-43], the 50% inhibitory concentration (IC50) stood at 9 nM.

`CCNC(=O)C(COC(=O)Cc1ccc(NC(=O)c2ccccc2Oc2ccccc2)c(C(=O)N(C)C)c1)(C(=O)NCC)c1ccccc1` [Example 2-44]: the IC50 was 33 nM.

`CCOC(=O)C(COC(=O)Cc1ccc(NC(=O)c2ccccc2Oc2ccccc2)c(C(=O)N(C)C)c1)(C(=O)OCC)c1ccccc1` [Example 2-45]: the IC50 came to 39 nM.

As for `CCOC(=O)C(COC(=O)Cc1ccc(NC(=O)c2ccccc2-c2ccc(C#N)cc2)c(C(=O)N(C)C)c1)(C(=O)OCC)c1ccccc1` [Example 2-46], the 50% inhibitory concentration (IC50) was determined as 2.9 nM.

With `CCOC(=O)C(COC(=O)Cc1ccc(NC(=O)c2cc(C)ccc2-c2ccc(C(F)(F)F)cc2)c(C(=O)N(C)C)c1)(C(=O)OCC)c1ccccc1` [Example 2-47], the IC50 was found to be 1.2 nM.

Consider `CN(C)C(=O)c1cc(CC(=O)OC[C@@H](NS(C)(=O)=O)c2ccccc2)ccc1NC(=O)c1ccccc1-c1ccc(C(F)(F)F)cc1` [Example 2-49], for which the half-inhibitory concentration (IC50) turned out to be 49 nM.

With `CCOC(=O)C(COC(=O)Cc1ccc(NC(=O)c2ccccc2-c2ccc(C(F)(F)F)cc2)c(C(=O)N(C)C)c1)c1ccccc1` (stereo not drawn) [Example 2-50], the IC50 worked out at 21 nM.

Still in this assay, the particulars now being: Homo sapiens, main metabolites of the compounds (Test Example 8), read-out: Inhibition of apo B secretion IC50.
Regarding `O=C(O)Cc1ccc(NC(=O)c2ccccc2-c2ccc(C(F)(F)F)cc2)c(C(=O)N2CCCC2)c1`, the half-maximal inhibitory concentration (IC50) was > 10000 nM.
